Reference: patent US9347077B2, “Over-expression of a putative oxidoreductase (UcpA) for increasing furfural or 5-hydroxymethylfurfural tolerance” (UNIVERSITY OF FLORIDA RESEARCH FOUNDATION, INCORPORATED, priority 2011, dated 2016)

Experiments:
Type in all cases: cell-based, Escherichia coli
[1] = test system: XW118 (LY180 ucpA::kan); test: pH-controlled batch fermentation (10% xylose)
Experimental: (§1) The effects of UcpA on growth, ethanol production, and furfural metabolism were investigated in more detail during pH-controlled batch fermentation in mineral salt medium (AM1 medium containing 100 g xylose liter^−1, 0.1 mM IPTG and 12.5 μg ml^−1 ampicillin for all cultures harboring plasmids; furfural as indicated; inoculum of 22 mg dcw liter^−1) as previously described (Wang et al., 2011b). Ethanol (retention time 1.1 min) and furfuryl alcohol (retention time 6.2 min) were measured using an Agilent 6890N gas chromatograph (Santa Clara, Calif.) (Miller et al., 2009b). Furoic acid (retention time of 51.2 min) and sugars were measured by high-performance liquid chromatography (Geddes et al., 2010a). Furfural was measured using a Beckman-Coulter DU 800 spectrophotometer (Martinez et al., 2000a).

[2] = test system: oxidoreductase gene mRNA in LY180; test: Comparison of mRNA levels before and after furfural addition (expression array); conditions: 1.5 g/L furfural addition in LY180
Experimental: Analysis of mRNA as a measure of gene expression was performed as previously described (Miller et al., 2009a). Cultures were grown using 4 separate 500-ml fermentation vessels per strain. Initial samples (control) were removed for RNA extraction when the culture density reached approximately 0.66 g dry cell weight (dcw) liter^−1 (1.5 OD 550 nm). Furfural (15 mM) was then added and incubation continued. After 15 min incubation with furfural, cells were harvested for RNA extraction. RNA was submitted to NimbleGen for analysis of global expression. Expression data was further analyzed using ArrayStar and Excel.
UcpA was discovered accidentally as a beneficial gene for furfural tolerance during a search for E. coli NADH-utilizing oxidoreductase genes that could reduce furfural and confer resistance. […] We began by comparing expression levels of all E. coli genes in the absence of furfural and in the presence of 15 mM furfural (Table 1). […] These were further sorted to identify 5 candidate oxidoreductases that are known or putative users of NADH and have a 3-fold or higher expression level in the presence of 15 mM furfural. One of the genes was fucO, a gene previously discovered to reduce furfural using NADH and to increase furfural tolerance in E. coli. Four new candidates were identified. Two were operons encoding subunits (xdhABC and YeiTA) and two were monocistronic (ucpA and aldA). These 4 candidates are shown in bold type in Table 2.

[3] = test system: XW137 (E. coli W ucpA::kan); test: pH-controlled batch fermentation (10% xylose)
[4] = test system: LY180/pLOI4856; test: pH-controlled batch fermentation (10% xylose)
Experimental: (§2) Seed pre-cultures of strains containing pTrc99A or pLOI4856 were grown from plates using sealed culture tubes containing AM1 medium (20 g liter^−1 xylose, 12.5 mg liter^−1 ampicillin). After incubation for 16 h, pre-inocula were diluted into 500-ml fermentation vessels containing 300 ml AM1 media (100 g liter^−1 xylose, 1 mM betaine, 0.1 mM IPTG, 12.5 μg ml^−1 ampicillin) to provide a starting density of 13.2 mg dcw. After 24 h growth, these seed cultures were used to provide a starting inoculum for batch fermentations (AM1 medium, 100 g liter^−1 xylose, 12.5 μg ml^−1 ampicillin, 0.1 mM IPTG, 13.2 mg dcw initial density, and furfural). Fermentations were maintained at pH 6.5 […] by the automatic addition of KOH as previously described (Miller et al., 2009b). Ethanol was measured using an Agilent 6890N gas chromatograph (Palo Alto, Calif.) equipped with a flame ionization detector and a 15-meter HP-Plot Q Megabore column. Furfural concentration was monitored using a Beckman DU spectrophotometer (Martinez et al., 2000b; Miller et al., 2009b). Organic acids and xylose were measured by high-performance liquid chromatography (Miller et al., 2009b).
as §1

[5] = test system: LY180/pTrc99A; test: pH-controlled batch fermentation (10% xylose)
Experimental: as §2, §1

[6] = test system: LY180 (pLOI4856); test: In vivo (whole cell) furfural reduction; conditions: plasmid copies of ucpA; similar to the vector control
Experimental: In vivo furfural reduction was measured during incubation in AM1 medium containing 10 mM furfural and 50 g liter^−1 xylose. Cells were pre-incubated with chloramphenicol (40 mg liter^−1) for 1 h to arrest growth (0.88 mg dcw cells ml^−1), prior to the addition of furfural. Furfural concentration was measured as previously described using a Beckman spectrophotometer DU800 (Martinez et al., 2000b).

[7] = test system: E. coli W/pLOI4856; test: pH-controlled batch fermentation (10% xylose); conditions: 10 mM furfural
[8] = 15 mM furfural, batch fermentation of xylose to ethanol

Structure (SMILES): O=Cc1ccco1 [furfural]
- Cell Yield ([1]; 8 mM furfural): 4.0 ± 0.1 g/L
- Furfural-dependent slow growth Duration ([1]; 8 mM furfural): 55 ± 2 h
- Furfural-dependent slow growth μ ([1]; 8 mM furfural): 0.01 ± 0.01 h⁻¹
- μ Max ([1]; 8 mM furfural): 0.14 ± 0.01 h⁻¹
- Cell Yield ([1]; 10 mM furfural): 0.04 ± 0.01 g/L
- Furfural-dependent slow growth Duration ([1]; 10 mM furfural): >72 h
- Furfural-dependent slow growth μ ([1]; 10 mM furfural): <0.04 h⁻¹
- μ Max ([1]; 10 mM furfural): <0.04 h⁻¹
- Fold increase of mRNA, yagQ ([2]; b0283-b0286 yagQRST, 1st value): 2.2 fold
- Fold increase of mRNA, yagR ([2]; b0283-b0286 yagQRST, 2nd value): 2.3 fold
- Fold increase of mRNA, yagS ([2]; b0283-b0286 yagQRST, 3rd value): 4.7 fold
- Fold increase of mRNA, yagT ([2]; b0283-b0286 yagQRST, 4th value): 3.5 fold
- Fold increase of mRNA, ykgE ([2]; b0306): 2.0 fold
- Fold increase of mRNA, frmB ([2]; b0355-b0356 frmBA, 1st value): 4.4 fold
- Fold increase of mRNA, frmA ([2]; b0355-b0356 frmBA, 2nd value): 5.7 fold
- Fold increase of mRNA, yajO ([2]; b0419): 2.6 fold
- Fold increase of mRNA, ybdH ([2]; b0599): 3.0 fold
- Fold increase of mRNA, sdhA ([2]; b0723-b0724 sdhAB, 1st value): 5.3 fold
- Fold increase of mRNA, sdhB ([2]; b0723-b0724 sdhAB, 2nd value): 5.8 fold
- Fold increase of mRNA, ybiC ([2]; b0801): 2.2 fold
- Fold increase of mRNA, wrbA ([2]; b1004): 3.0 fold
- Fold increase of mRNA, yciW ([2]; b1287): 2.4 fold
- Fold increase of mRNA, ydbC ([2]; b1406): 2.9 fold
- Fold increase of mRNA, aldA ([2]; b1415): 4.2 fold
- Fold increase of mRNA, ydcW ([2]; b1444): 2.5 fold
- Fold increase of mRNA, yncB ([2]; b1449): 2.6 fold
- Fold increase of mRNA, nemA ([2]; b1650): 6.4 fold
- Fold increase of mRNA, yobF ([2]; b2137): 8.5 fold
- Fold increase of mRNA, yeiT ([2]; b2146-b2147 yeiTA, 1st value): 3.1 fold
- Fold increase of mRNA, yeiA ([2]; b2146-b2147 yeiTA, 2nd value): 3.0 fold
- Fold increase of mRNA, yeiQ ([2]; b2172): 2.3 fold
- Fold increase of mRNA, ucpA ([2]; b2426): 4.5 fold
- Fold increase of mRNA, yphC ([2]; b2545): 2.3 fold
- Fold increase of mRNA, fucO ([2]; b2799): 4.4 fold
- Fold increase of mRNA, xdhABC ([2]; b2868): 5.8 fold
- Fold increase of mRNA, ygfS ([2]; b2886): 2.1 fold
- Fold increase of mRNA, yqfA ([2]; b2899): 2.2 fold
- Fold increase of mRNA, yghZ ([2]; b3001): 2.0 fold
- Fold increase of mRNA, yqhD ([2]; b3011): 4.6 fold
- Fold increase of mRNA, dkgA ([2]; b3012): 5.4 fold
- Fold increase of mRNA, yiaK ([2]; b3572): 2.4 fold
- Fold increase of mRNA, aldB ([2]; b3588): 5.7 fold
- Cell Yield ([3]; 8 mM furfural): 1.9 ± 0.1 g/L
- Furfural-dependent slow growth Duration ([3]; 8 mM furfural): 16 ± 3 h
- Furfural-dependent slow growth μ ([3]; 8 mM furfural): 0.11 ± 0.02 h⁻¹
- Cell Yield ([3]; 10 mM furfural): 1.9 ± 0.1 g/L
- Furfural-dependent slow growth Duration ([3]; 10 mM furfural): 37 ± 2 h
- Furfural-dependent slow growth μ ([3]; 10 mM furfural): 0.02 ± 0.01 h⁻¹
- μ Max ([3]; 10 mM furfural): 0.12 ± 0.02 h⁻¹
- Cell Yield ([4]; 10 mM furfural): 3.6 ± 0.1 g/L
- Furfural-dependent slow growth Duration ([4]; 10 mM furfural): 22 ± 2 h
- Furfural-dependent slow growth μ ([4]; 10 mM furfural): 0.09 ± 0.01 h⁻¹
- μ Max ([4]; 10 mM furfural): 0.14 ± 0.01 h⁻¹
- Final ethanol yield ([4]; 15 mM furfural, 100 g liter^−1 xylose): approximately 90 % of the theoretical maximum
- Growth lag in the presence of furfural [4, 8]: 24 h
- Cell Yield ([5]; 10 mM furfural): 0.06 ± 0.01 g/L
- Furfural-dependent slow growth Duration ([5]; 10 mM furfural): >72 h
- Furfural-dependent slow growth μ ([5]; 10 mM furfural): <0.04 h⁻¹
- μ Max ([5]; 10 mM furfural): <0.04 h⁻¹
- Growth in the presence of furfural [5, 8]: unable to grow
- Whole-cell specific activity (furfural reductase) [6]: < 0.10 U mg dcw^−1
- Cell Yield [7]: 2.5 ± 0.3 g/L
- Furfural-dependent slow growth Duration [7]: 16 ± 2 h
- Furfural-dependent slow growth μ [7]: 0.07 ± 0.01 h⁻¹
- μ Max [7]: 0.18 ± 0.02 h⁻¹
